Broadly, the EC50 is the concentration giving half of the maximal effect. As usually defined, the IC50 is the concentration that inhibits the measured activity by half. Usually AC50 stands for the concentration giving half of the maximal activity seen. In general, Ki refers to a measure of affinity in units of concentration, obtained from inhibition or displacement.

Activity calls are given as the source filed them.

The target in assay [1] is T1, Trace amine-associated receptor 1 (Homo sapiens, UniProt Q96RJ0).
T1 sequence (Q96RJ0 whole entry): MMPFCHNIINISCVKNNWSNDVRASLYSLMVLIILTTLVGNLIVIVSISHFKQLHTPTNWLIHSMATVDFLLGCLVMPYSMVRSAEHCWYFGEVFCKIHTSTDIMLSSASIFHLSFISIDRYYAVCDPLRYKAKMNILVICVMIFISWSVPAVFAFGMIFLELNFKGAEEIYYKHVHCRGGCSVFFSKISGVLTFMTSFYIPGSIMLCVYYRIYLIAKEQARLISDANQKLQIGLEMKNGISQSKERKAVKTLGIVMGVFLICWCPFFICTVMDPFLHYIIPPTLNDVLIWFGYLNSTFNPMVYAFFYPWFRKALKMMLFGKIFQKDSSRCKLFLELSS
The assay is described as follows: Fluorescence-based cell-based high throughput dose response assay to identify agonists of the human trace amine associated receptor 1 (TAAR1). The class given is functional.

Assay [2] in a line: cells. It is filed as functional, cell-based.
Assay [3] deals with T2, Heat shock factor protein 1 (Mus musculus, UniProt P38532).
T2 sequence (P38532 whole entry): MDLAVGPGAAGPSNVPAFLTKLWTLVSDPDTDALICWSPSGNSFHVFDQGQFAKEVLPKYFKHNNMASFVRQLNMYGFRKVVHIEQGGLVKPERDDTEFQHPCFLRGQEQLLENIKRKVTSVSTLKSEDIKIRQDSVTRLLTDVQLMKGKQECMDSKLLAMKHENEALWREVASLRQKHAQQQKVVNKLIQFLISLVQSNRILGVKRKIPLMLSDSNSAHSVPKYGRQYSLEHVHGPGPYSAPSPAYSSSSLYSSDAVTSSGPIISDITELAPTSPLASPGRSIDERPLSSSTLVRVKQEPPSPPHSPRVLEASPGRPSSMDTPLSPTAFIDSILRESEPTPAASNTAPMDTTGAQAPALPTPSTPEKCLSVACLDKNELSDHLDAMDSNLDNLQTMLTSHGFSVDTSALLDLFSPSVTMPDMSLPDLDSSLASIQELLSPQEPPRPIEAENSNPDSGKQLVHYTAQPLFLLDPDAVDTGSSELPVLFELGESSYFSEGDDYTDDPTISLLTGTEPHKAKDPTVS
The assay is described as follows: enhancement of HSF1-driven luciferase signal – cell-based, NIH3T3, luminescence, dose retest, confirmation (AID 435004).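 Also: stress induced by proteasome inhibitor MG132 added 30 min after compound; luciferase reporter driven by HSF1 response element in NIH3T3 cells; actives raise luminescence as potentiators of the MG132 stress response.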 The class given is functional.

Assay [4] concerns the target T1, Trace amine-associated receptor 1. The assay is described as follows: Counterscreen for agonists of the human trace amine associated receptor 1 (hTAAR1): Fluorescence-based cell-based high throughput dose response assay to identify hTAAR1 agonist that also desensitize TAAR1 receptor response. The class given is functional.
A short description of assay [5]: cells. It is filed as functional, cell-based. This is another data set of the same source.
The target in assay [6] is T3, Tyrosyl-DNA phosphodiesterase 2 (Homo sapiens, UniProt O95551).
T3 sequence (O95551 whole entry): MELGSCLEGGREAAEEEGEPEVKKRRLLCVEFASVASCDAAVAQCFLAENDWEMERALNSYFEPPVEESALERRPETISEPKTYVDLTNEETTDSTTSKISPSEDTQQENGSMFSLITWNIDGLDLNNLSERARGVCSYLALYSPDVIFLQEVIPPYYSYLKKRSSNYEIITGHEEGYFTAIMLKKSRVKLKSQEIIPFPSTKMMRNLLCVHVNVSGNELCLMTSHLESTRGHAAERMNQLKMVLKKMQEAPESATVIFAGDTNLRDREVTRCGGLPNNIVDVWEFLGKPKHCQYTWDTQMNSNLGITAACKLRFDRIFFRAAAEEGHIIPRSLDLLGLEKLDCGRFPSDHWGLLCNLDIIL
As to the kind of experiment: potency against TDP2 phosphodiesterase activity – biochemical, epi absorbance, IC50, dose response (AID 743297).

Assay [7] addresses T4, Histone-lysine N-methyltransferase NSD2 (Homo sapiens, UniProt O96028).
T4 sequence (O96028 whole entry): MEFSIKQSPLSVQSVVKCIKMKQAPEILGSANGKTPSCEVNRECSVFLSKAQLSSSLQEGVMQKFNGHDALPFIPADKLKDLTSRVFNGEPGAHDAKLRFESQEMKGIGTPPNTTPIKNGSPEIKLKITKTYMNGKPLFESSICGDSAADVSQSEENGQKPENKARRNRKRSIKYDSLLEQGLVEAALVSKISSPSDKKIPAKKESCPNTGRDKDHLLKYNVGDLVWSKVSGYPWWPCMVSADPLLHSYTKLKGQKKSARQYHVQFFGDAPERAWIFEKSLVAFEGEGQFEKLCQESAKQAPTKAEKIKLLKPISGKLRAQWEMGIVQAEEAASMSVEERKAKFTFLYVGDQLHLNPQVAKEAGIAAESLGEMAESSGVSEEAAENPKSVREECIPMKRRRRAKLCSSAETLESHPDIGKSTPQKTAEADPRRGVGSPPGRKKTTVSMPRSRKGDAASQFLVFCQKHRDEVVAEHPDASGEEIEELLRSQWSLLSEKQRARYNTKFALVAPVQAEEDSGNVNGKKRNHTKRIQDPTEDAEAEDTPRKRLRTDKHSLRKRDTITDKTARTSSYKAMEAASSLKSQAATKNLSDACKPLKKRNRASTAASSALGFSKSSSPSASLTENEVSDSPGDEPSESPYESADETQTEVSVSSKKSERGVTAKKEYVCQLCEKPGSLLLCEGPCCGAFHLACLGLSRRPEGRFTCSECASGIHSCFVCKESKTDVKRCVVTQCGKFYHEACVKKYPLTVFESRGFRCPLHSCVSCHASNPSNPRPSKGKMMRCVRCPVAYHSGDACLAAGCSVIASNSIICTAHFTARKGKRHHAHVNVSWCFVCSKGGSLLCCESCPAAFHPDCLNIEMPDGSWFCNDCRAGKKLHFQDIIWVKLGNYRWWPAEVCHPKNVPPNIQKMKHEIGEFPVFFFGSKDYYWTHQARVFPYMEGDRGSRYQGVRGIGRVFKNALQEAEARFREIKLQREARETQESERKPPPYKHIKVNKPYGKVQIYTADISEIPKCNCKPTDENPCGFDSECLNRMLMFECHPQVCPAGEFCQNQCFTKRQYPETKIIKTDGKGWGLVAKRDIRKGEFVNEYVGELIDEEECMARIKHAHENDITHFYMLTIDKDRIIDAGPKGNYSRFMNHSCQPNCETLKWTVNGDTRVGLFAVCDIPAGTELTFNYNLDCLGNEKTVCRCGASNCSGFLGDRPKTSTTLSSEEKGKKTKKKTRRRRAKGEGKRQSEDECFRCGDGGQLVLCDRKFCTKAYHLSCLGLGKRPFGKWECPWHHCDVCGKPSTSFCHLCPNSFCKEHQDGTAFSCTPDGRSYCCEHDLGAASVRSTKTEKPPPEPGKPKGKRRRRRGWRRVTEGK
The class given is biochemical.

Assay [8] has as its target T5, fMet-Leu-Phe receptor (Homo sapiens, UniProt P21462).
T5 sequence (P21462 whole entry): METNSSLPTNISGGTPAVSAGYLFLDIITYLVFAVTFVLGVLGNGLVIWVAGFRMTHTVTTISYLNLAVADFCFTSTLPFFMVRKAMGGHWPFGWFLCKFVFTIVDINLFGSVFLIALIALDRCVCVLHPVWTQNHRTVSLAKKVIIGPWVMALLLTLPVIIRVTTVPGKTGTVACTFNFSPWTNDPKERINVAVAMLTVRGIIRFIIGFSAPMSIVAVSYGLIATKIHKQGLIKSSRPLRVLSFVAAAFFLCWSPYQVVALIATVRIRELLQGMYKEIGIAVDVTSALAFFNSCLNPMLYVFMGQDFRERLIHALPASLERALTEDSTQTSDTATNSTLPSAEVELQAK
The assay is described as follows: formyl peptide receptor binders – dose response (AID 519). It is filed as functional.

In assay [9] the target is Paired box protein Pax-8 (Homo sapiens, UniProt Q06710). As to the kind of experiment: PAX8 transcriptional activity inhibition in RMG-I – RMG-I cells, luciferase, cherry-pick, dose response (AID 687027).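 Also: luciferase reporter driven by Pax8 target thyroperoxidase promoter measured by SteadyGlo luminescence.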 It is filed as functional, cell-based.
Chain of Paired box protein Pax-8 (Q06710 whole entry): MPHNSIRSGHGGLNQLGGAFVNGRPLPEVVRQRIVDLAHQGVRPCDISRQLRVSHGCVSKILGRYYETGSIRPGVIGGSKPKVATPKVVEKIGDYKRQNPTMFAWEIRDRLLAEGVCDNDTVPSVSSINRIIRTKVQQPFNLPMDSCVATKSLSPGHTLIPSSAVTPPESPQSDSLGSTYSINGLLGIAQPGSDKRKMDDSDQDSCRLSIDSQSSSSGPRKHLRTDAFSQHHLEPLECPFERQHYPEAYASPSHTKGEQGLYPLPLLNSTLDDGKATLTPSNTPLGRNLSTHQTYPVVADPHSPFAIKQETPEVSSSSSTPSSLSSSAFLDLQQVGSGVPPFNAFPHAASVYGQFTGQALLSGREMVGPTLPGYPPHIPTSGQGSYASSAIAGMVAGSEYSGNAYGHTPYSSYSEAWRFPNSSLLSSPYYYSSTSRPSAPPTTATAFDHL
Assay [10] is described as follows: OVCAR-3 cell viability loss – plate reader, dry powder samples, PAX8 inhibitor project, dose response (AID 743044). The class given is functional, cell-based.
Assay [11] is described as follows: general cell-killing toxicity readout – plate reader, dry powder samples, cytotoxicity control for PAX8 inhibitor project, dose response (AID 743021). The class given is functional, cell-based.
Assay [12] can be described thus: OVCAR8 cell viability loss – plate reader, dry powder samples, PAX8 project, dose response (AID 743197). The class given is functional, cell-based. Conditions: OVCAR-8.

As to `O=C(CCN1CCc2ccccc2C(c2ccccc2)C1)c1ccc2c(c1)OCCO2` (stereo not given), the results for the EC50 in assay [1], in assay [2] and in [3] were 4.51 µM (active), > 29.9 µM (inactive) and > 260 µM (inactive), respectively. The results for the IC50 in assay [4] and in [5] were 9.28 µM (active) and > 29.9 µM (inactive), respectively.
`S=C(Nc1ccc2nsnc2c1)N1CCCCC1`: in assay [6], the IC50 is > 128 µM (inactive). The AC50 in assay [7] is 5.13 µM (active).
In the case of `C[N+]1(C)[C@@H]2C[C@@H](OC(=O)[C@H](CO)c3ccccc3)C[C@H]1[C@@H]1O[C@@H]12`, the Ki in [8] is > 66.7 µM (inactive).
The same measure, in the same setting: next, `COC(=O)Cc1n[nH]c2c1C(C1C=CCCC1)C(C#N)=C(N)O2` (stereo not given): > 66.7 µM (inactive).
In the case of `C[C@H](CO)N1C[C@H](C)[C@H](CN(C)S(=O)(=O)c2ccc(Cl)cc2)Oc2c(NC(=O)Nc3ccc(F)cc3)cccc2C1=O`, the AC50 is 10.2 µM (active) in [9], 31.8 µM (active) in assay [10], 51.4 µM (active) in assay [11] and 31.8 µM (active) in assay [12].
Turning to `C[C@@H]1CCCCO[C@H](CN(C)S(=O)(=O)c2ccc(F)cc2)[C@H](C)CN([C@@H](C)CO)C(=O)c2cc(NS(=O)(=O)c3ccc(Cl)cc3)ccc2O1`, the AC50 in [9] is 9.75 µM (active); in assay [11] it was 68.4 µM (active).

Values taken from ChEMBL document CHEMBL1201862, “PubChem BioAssay data set” (2004).
